# Laboratory results published in patent publication US12042520B2 (SOLUVEG SA, priority 2015, dated 2024).
# Columns and labels:
# [1] = Curcumin plasma concentration after intravenous administration in the pig (for comparison); assay type: in vivo; settings: 0.60 grams for 23 kg
# [2] = piperine used with curcumin; cited from earlier work
Compound,Time for which the plasma concentration remains at a constant level [1],Time of plasma concentration peak [1],"concentration at 0 hours ([1]; plasma, 0.6 grams for 23 kg of live weight, 0 hours)","concentration at 3 hours ([1]; plasma, 0.6 grams for 23 kg of live weight, 3 hours)","concentration at 6 hours ([1]; plasma, 0.6 grams for 23 kg of live weight, 6 hours)","concentration at 9 hours ([1]; plasma, 0.6 grams for 23 kg of live weight, 9 hours)","concentration at 24 hours ([1]; plasma, 0.6 grams for 23 kg of live weight, 24 hours)","concentration at 48 hours ([1]; plasma, 0.6 grams for 23 kg of live weight, 48 hours)","concentration at 72 hours ([1]; plasma, 0.6 grams for 23 kg of live weight, 72 hours)",Effect in the intestine (in words) [2]
"COc1cc(/C=C/C(=O)CC(=O)/C=C/c2ccc(O)c(OC)c2)ccc1O [Curcumin, curcumin]",10 h,24 h,0 ng/mL,537 ng/mL,557 ng/mL,713 ng/mL,724 ng/mL,537 ng/mL,385 ng/mL,
O=C(/C=C/C=C/c1ccc2c(c1)OCO2)N1CCCCC1 [piperine],,,,,,,,,,irritating effect in the intestine
